This is an account of results in patent US20220144838A1, “Compounds as Inhibitors of Macrophage Migration Inhibitory Factor” (NANJING IMMUNOPHAGE BIOTECH CO., LTD., priority 2019, published 2022).

The first assay deals with T1, MIF (Homo sapiens, UniProt P14174).
T1 sequence (P14174 2-115 limits assumed): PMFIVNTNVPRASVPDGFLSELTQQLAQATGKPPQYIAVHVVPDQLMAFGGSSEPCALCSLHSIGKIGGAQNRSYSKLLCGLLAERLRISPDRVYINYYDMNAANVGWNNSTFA
Put plainly: MIF tautomerase assay using pHPP as substrate. It is filed as biochemical. The settings on record: inhibition of the MIF enzyme in vitro; mean of multiple test results. In a few lines: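 Mean pIC50 derived from initial rates (absorbance progress-curve slopes) of MIF-catalyzed ketonic-to-enolic pHPP conversion, read as enol–borate complex. Reactions contained 1.5 mM substrate and 3 nM enzyme (final), 200 mM boric acid stock buffer, BSA and CHAPS, pH 6.0.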
As to “4-(4-(7-(2-hydroxyethyl)-4-(indolin-1-yl)-7H-pyrrolo[2,3-d]pyrimidin-2-yl)piperazin-1-yl)phenol [Example 1]”, the “Tautomerase Inhibition pIC50” value is on record as “B (B means 5.01 to 6)”.

The same assay, now with this note: inhibition of the MIF enzyme in vitro; mean of multiple test results; read-out: Tautomerase Inhibition pIC50 (converted).
`Oc1ccc(N2CCN(c3nc(NCCc4ccccc4)c4ncn(-c5cccnc5)c4n3)CC2)cc1` [Example 91, 4-(4-(6-(phenethylamino)-9-(pyridin-3-yl)-9H-purin-2-yl)piperazin-1-yl)phenol]: the IC50 is 0.1 to 0.977 µM.

Take `OCCn1cnc2c(-n3ncc4ccccc43)nc(N3CC(O)(c4ccccc4)C3)nc21` [Example 225, 1-(9-(2-hydroxyethyl)-6-(1H-indazol-1-yl)-9H-purin-2-yl)-3-phenylazetidin-3-ol]: the IC50 is 1 to 9.77 µM.

With `Cc1nc(N2CCC(O)(c3ccc(O)cc3)CC2)nc2c1ncn2-c1cccnc1` [Example 204, 4-(4-hydroxyphenyl)-1-(6-methyl-9-(pyridin-3-yl)-9H-purin-2-yl)piperidin-4-ol], the IC50 is 0.01 to 0.0977 µM. Still for that read-out and setting: the same measure for `O=C1Cc2ccccc2N1c1nc(N2CCN(c3ccc(O)cc3)CC2)nc2c1ncn2CCO` [Example 2, 1-(9-(2-hydroxyethyl)-2-(4-(4-hydroxyphenyl)piperazin-1-yl)-9H-purin-6-yl)indolin-2-one]: 0.1 to 0.977 µM; for `Cc1nc(N2CCN(c3ccc(O)cc3)CC2)nc2c1ncn2-c1cc(N2CCN(c3ccc(O)cc3)CC2)cnn1` [Example 64, 4-(4-(6-(2-(4-(4-hydroxyphenyl)piperazin-1-yl)-6-methyl-9H-purin-9-yl)pyridazin-4-yl)piperazin-1-yl)phenol]: 1 to 9.77 µM; for `Nc1nc(N2CCN(c3ccc(O)cc3)CC2)nc2c1ncn2-c1ccc(F)cc1` [Example 73, 4-(4-(6-amino-9-(4-fluorophenyl)-9H-purin-2-yl)piperazin-1-yl)phenol]: more than 10 µM. Take `Oc1ccc(N2CCN(c3ncc4ncn(-c5ccncc5)c4n3)CC2)cc1` [Example 184, 4-(4-(9-(pyridin-4-yl)-9H-purin-2-yl)piperazin-1-yl)phenol]: the IC50 is 0.01 to 0.0977 µM. `O=C(O)Cn1cnc2c(-n3nnc4ccncc43)nc(N3CCN(c4ccc(O)cc4)CC3)nc21` [Example 121, 2-(6-(3H-[1,2,3]triazolo[4,5-c]pyridin-3-yl)-2-(4-(4-hydroxyphenyl)piperazin-1-yl)-9H-purin-9-yl)acetic acid]: the IC50 is 0.01 to 0.0977 µM. With `Cc1cc(-n2cnc3c(C)nc(N4CCC(O)(c5ccc(O)cc5)CC4)nc32)ccn1` [Example 203, 4-(4-hydroxyphenyl)-1-(6-methyl-9-(2-methylpyridin-4-yl)-9H-purin-2-yl)piperidin-4-ol], the IC50 is more than 10 µM. On to `Nc1nc(N2CCN(c3ccc(O)cc3)CC2)nc2c1ncn2-c1ccc(Cl)cc1Cl` [Example 69, 4-(4-(6-amino-9-(2,4-dichlorophenyl)-9H-purin-2-yl)piperazin-1-yl)phenol], for which the IC50 was more than 10 µM. Regarding `Nc1nc(N2CCC(O)(c3ccc(F)cc3)CC2)nc2c1ncn2-c1ccncc1` [Example 210, 1-(6-amino-9-(pyridin-4-yl)-9H-purin-2-yl)-4-(4-fluorophenyl)piperidin-4-ol], the IC50 is 1 to 9.77 µM. In the case of `OC1(c2cn[nH]c2)CN(c2ncc3ncn(-c4ccncc4)c3n2)C1` [Example 200, 3-(1H-pyrazol-4-yl)-1-(9-(pyridin-4-yl)-9H-purin-2-yl)azetidin-3-ol], the IC50 was more than 10 µM. In the case of `Nc1nc(N2CC(O)(c3cn[nH]c3)C2)nc2c1ncn2-c1ccncc1` [Example 199, 1-(6-amino-9-(pyridin-4-yl)-9H-purin-2-yl)-3-(1H-pyrazol-4-yl)azetidin-3-ol], the IC50 is more than 10 µM. As to `CC(C(=O)O)n1cnc2nc(N3CCN(c4ccc(O)cc4)CC3)nc(-n3ncc4ccccc43)c21` (stereo not shown) [Example 125, 2-(2-(4-(4-hydroxyphenyl)-piperazin-1-yl)-6-(1H-indazol-1-yl)-7H-purin-7-yl)propanoic acid], the IC50 was 0.1 to 0.977 µM. Take `OCCCn1cnc2c(N3CCc4ccccc43)nc(N3CCN(c4ccc(O)cc4)CC3)nc21` [Example 7, 4-(4-(9-(3-hydroxypropyl)-6-(indolin-1-yl)-9H-purin-2-yl)piperazin-1-yl)phenol]: the IC50 is 1 to 9.77 µM. For `CS(=O)(=O)NCCn1cnc2c(-n3ncc4ccccc43)nc(N3CCN(c4ccc(O)cc4)CC3)nc21` [Example 139, N-(2-(2-(4-(4-hydroxyphenyl)piperazin-1-yl)-6-(1H-indazol-1-yl)-9H-purin-9-yl)ethyl)methanesulfonamide], the IC50 is 1 to 9.77 µM. The same measure, in the same setting: then `OCCn1cnc2c(-n3ncc4ccccc43)nc(N3CCC(O)(c4ccc(F)cc4)CC3)nc21` [Example 224, 4-(4-fluorophenyl)-1-(9-(2-hydroxyethyl)-6-(1H-indazol-1-yl)-9H-purin-2-yl)piperidin-4-ol], with 1 to 9.77 µM. Turning to `Oc1ccc(N2CCN(c3nc(NC4CCCC4)c4ncn(-c5cccnc5)c4n3)CC2)cc1` [Example 96, 4-(4-(6-(cyclopentylamino)-9-(pyridin-3-yl)-9H-purin-2-yl)piperazin-1-yl)phenol], the IC50 is 1 to 9.77 µM. In the case of `OCCCn1cnc2c(-n3ncc4ccccc43)nc(N3CCN(c4ccc(O)cc4)CC3)nc21` [Example 23, 4-(4-(9-(3-hydroxypropyl)-6-(1H-indazol-1-yl)-9H-purin-2-yl)piperazin-1-yl)phenol], the IC50 is 0.1 to 0.977 µM. Take `COc1ccc(-n2cnc3c(N)nc(N4CCN(c5ccc(O)cc5)CC4)nc32)cn1` [Example 85, 4-(4-(6-amino-9-(6-methoxypyridin-3-yl)-9H-purin-2-yl)piperazin-1-yl)phenol]: the IC50 is 0.1 to 0.977 µM. For the molecule `Nc1nc(N2CCN(c3ccc(O)cc3)CC2)nc2c1ncn2-c1cccc(-c2ccccc2)c1` [Example 78, 4-(4-(9-([1,1′-biphenyl]-3-yl)-6-amino-9H-purin-2-yl)piperazin-1-yl)phenol], the IC50 is 1 to 9.77 µM. For the molecule `Cc1cc(N2CCN(c3nc(-n4ncc5ccccc54)c4ncn(CCO)c4n3)CC2)ccc1O` [Example 153, 4-(4-(9-(2-hydroxyethyl)-6-(1H-indazol-1-yl)-9H-purin-2-yl)piperazin-1-yl)-2-methylphenol], the IC50 is 1 to 9.77 µM.

For the molecule `OCC1CCN(c2nc(N3CCN(c4ccc(O)cc4)CC3)nc3c2ncn3-c2cccnc2)C1` (stereo not shown) [Example 94, 4-(4-(6-(3-(hydroxymethyl)pyrrolidin-1-yl)-9-(pyridin-3-yl)-9H-purin-2-yl)piperazin-1-yl)phenol], the IC50 was 0.1 to 0.977 µM. Consider `O=C1c2ccccc2C(=O)N1CCn1cnc2c(-n3ncc4ccccc43)nc(N3CCN(c4ccc(O)cc4)CC3)nc21` [Example 136, 2-(2-(2-(4-(4-hydroxyphenyl)piperazin-1-yl)-6-(1H-indazol-1-yl)-9H-purin-9-yl)ethyl)isoindoline-1,3-dione], for which the IC50 was 1 to 9.77 µM.

Regarding `Nc1nc(N2CCCN(c3ccccc3)CC2)nc2c1ncn2-c1ccncc1` [Example 227, 2-(4-phenyl-1,4-diazepan-1-yl)-9-(pyridin-4-yl)-9H-purin-6-amine], the IC50 was more than 10 µM.

With `CCC(CO)Nc1nc(N2CCN(c3ccc(O)cc3)CC2)nc2c1ncn2-c1cccnc1` (stereo not shown) [Example 114], the IC50 is 0.1 to 0.977 µM. As to `Cc1ccccc1-n1cnc2c(N)nc(N3CCN(c4ccc(O)cc4)CC3)nc21` [Example 76, 4-(4-(6-amino-9-(o-tolyl)-9H-purin-2-yl)piperazin-1-yl)phenol], the IC50 is more than 10 µM. As to `O=C(O)Cn1cnc2c(-n3ncc4ccccc43)nc(N3CCC(O)(c4ccccc4)C3)nc21` (stereo not shown) [Example 161, 2-(2-(3-hydroxy-3-phenylpyrrolidin-1-yl)-6-(1H-indazol-1-yl)-9H-purin-9-yl)acetic acid], the IC50 is more than 10 µM.

As for `CN(CCC(=O)O)c1nc(N2CCN(c3ccc(O)cc3)CC2)nc2c1ncn2-c1ccncc1` [Example 165, 3-((2-(4-(4-hydroxyphenyl)piperazin-1-yl)-9-(pyridin-4-yl)-9H-purin-6-yl)(methyl)amino)propanoic acid], the IC50 is 0.01 to 0.0977 µM. The same measure, in the same setting: the same measure for `Cc1nc(N2CCC(O)(c3ccc(O)cc3)CC2)nc2c1ncn2CC(=O)O` [Example 215, 2-(2-(4-hydroxy-4-(4-hydroxyphenyl)piperidin-1-yl)-6-methyl-9H-purin-9-yl)acetic acid]: more than 10 µM; for `O=C(O)Cn1cnc2c(-c3c[nH]c4ccccc34)nc(N3CCN(c4ccc(O)cc4)CC3)nc21` [Example 25, 2-(2-(4-(4-hydroxyphenyl)piperazin-1-yl)-6-(1H-indol-3-yl)-9H-purin-9-yl)acetic acid]: 1 to 9.77 µM; for `COc1ccc(-n2cnc3c(N)nc(N4CCN(c5ccc(O)cc5)CC4)nc32)c(OC)n1` [Example 84, 4-(4-(6-amino-9-(2,6-dimethoxypyridin-3-yl)-9H-purin-2-yl)piperazin-1-yl)phenol]: 1 to 9.77 µM.

For the molecule `CC(C(=O)O)n1cnc2c(-n3cc4ccccc4n3)nc(N3CCN(c4ccc(O)cc4)CC3)nc21` (stereo not shown) [Example 126, 2-(2-(4-(4-hydroxyphenyl)piperazin-1-yl)-6-(2H-indazol-2-yl)-9H-purin-9-yl)propanoic acid], the IC50 was 0.1 to 0.977 µM. Same read-out and setting: the same measure for `OCCn1cnc2c(N[C@@H]3CCc4ccccc43)nc(N3CCN(c4ccc(O)cc4)CC3)nc21` [Example 6, (R)-4-(4-(6-((2,3-dihydro-1H-inden-1-yl)amino)-9-(2-hydroxyethyl)-9H-purin-2-yl)piperazin-1-yl)phenol]: more than 10 µM; for `CN1CCN(c2nc(N3CCN(c4ccc(O)cc4)CC3)nc3c2ncn3-c2ccncc2)CC1` [Example 179, 4-(4-(6-(4-methylpiperazin-1-yl)-9-(pyridin-4-yl)-9H-purin-2-yl)piperazin-1-yl)phenol]: 1 to 9.77 µM; for `CNC(=O)c1ccc(-n2cnc3c(N)nc(N4CCN(c5ccc(O)cc5)CC4)nc32)cc1` [Example 103, 4-(6-amino-2-(4-(4-hydroxyphenyl)piperazin-1-yl)-9H-purin-9-yl)-N-methylbenzamide]: 1 to 9.77 µM.
